Assays:
Assay type in all cases: in vivo
[1] = system: Italian ryegrass (Lolium multiflorum); test: Test A preemergence, visual injury rating
Method in brief: (§1)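 Visual injury scored 0–100 (100 = complete control) against untreated controls about 10 days after treatment in a greenhouse. Test chemicals, formulated with surfactant in non-phytotoxic solvent, were sprayed on soil preemergence or on 2-10 cm, one- to two-leaf plants postemergence.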

[2] = system: barnyardgrass (Echinochloa crus-galli); test: Test A preemergence, visual injury rating; conditions: for Plant response rating, Barnyardgrass: 31 g ai/ha, 0 to 100 scale, 0 no effect, 100 complete control; for Barnyardgrass plant response rating: 125 g ai/ha, 0 to 100 scale (0 no effect, 100 complete control)
Method in brief: as §1

[3] = system: giant foxtail (Setaria faberii); test: Test A preemergence, visual injury rating
Method in brief: as §1

kochia (Kochia scoparia) [4] = test: Test A preemergence, visual injury rating
Method in brief: as §1

[5] = system: pigweed (Amaranthus retroflexus); test: Test A preemergence, visual injury rating
Method in brief: as §1

[6] = system: ragweed (common ragweed, Ambrosia elatior); test: Test A preemergence, visual injury rating
Method in brief: as §1

[7] = system: Italian ryegrass (Lolium multiflorum); test: Test A postemergence, visual injury rating; conditions: 0 to 100 scale, 0 is no effect, 100 is complete control, approximately 10 days
Method in brief: as §1

[8] = system: barnyardgrass (Echinochloa crus-galli); test: Test A postemergence, visual injury rating; conditions: 0 to 100 scale, 0 is no effect, 100 is complete control, approximately 10 days
Method in brief: as §1

[9] = system: blackgrass (Alopecurus myosuroides); test: Test A postemergence, visual injury rating; conditions: 0 to 100 scale, 0 is no effect, 100 is complete control, approximately 10 days
Method in brief: as §1

corn (Zea mays) = test: Test A postemergence, visual injury rating; conditions: 0 to 100 scale, 0 is no effect, 100 is complete control, approximately 10 days
Method in brief: as §1

[10] = system: galium (catchweed bedstraw, Galium aparine); test: Test A postemergence, visual injury rating; conditions: 0 to 100 scale, 0 is no effect, 100 is complete control, approximately 10 days
Method in brief: as §1

[11] = system: giant foxtail (Setaria faberii); test: Test A postemergence, visual injury rating; conditions: 0 to 100 scale, 0 is no effect, 100 is complete control, approximately 10 days
Method in brief: as §1

kochia (Kochia scoparia) [12] = test: Test A postemergence, visual injury rating; conditions: 0 to 100 scale, 0 is no effect, 100 is complete control, approximately 10 days
Method in brief: as §1

[13] = system: pigweed (Amaranthus retroflexus); test: Test A postemergence, visual injury rating; conditions: 0 to 100 scale, 0 is no effect, 100 is complete control, approximately 10 days
Method in brief: as §1

[14] = system: ragweed (common ragweed, Ambrosia elatior); test: Test A postemergence, visual injury rating; conditions: 0 to 100 scale, 0 is no effect, 100 is complete control, approximately 10 days
Method in brief: as §1

[15] = system: wheat (Triticum aestivum); test: Test A postemergence, visual injury rating; conditions: 0 to 100 scale, 0 is no effect, 100 is complete control, approximately 10 days
Method in brief: as §1

[16] = system: barnyardgrass (Echinochloa crus-galli); test: Test B flooded paddy test, plant response rating; conditions: 250 g ai/ha; Flood; scale of 0 to 100 where 0 is no effect and 100 is complete control; 13 to 15 days
Method in brief: (§2)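 Ratings were visual and made relative to untreated controls after 13 to 15 greenhouse days.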

[17] = system: ducksalad (Heteranthera limosa); test: Test B flooded paddy test, plant response rating; conditions: 250 g ai/ha; Flood; scale of 0 to 100 where 0 is no effect and 100 is complete control; 13 to 15 days
Method in brief: as §2

rice (Oryza sativa) = test: Test B flooded paddy test, plant response rating; conditions: 250 g ai/ha; Flood; scale of 0 to 100 where 0 is no effect and 100 is complete control; 13 to 15 days
Method in brief: as §2

[18] = system: sedge, umbrella (small-flower umbrella sedge, Cyperus difformis); test: Test B flooded paddy test, plant response rating; conditions: 250 g ai/ha; Flood; scale of 0 to 100 where 0 is no effect and 100 is complete control; 13 to 15 days
Method in brief: as §2

[19] = 31 g ai/ha, 0 to 100 scale, 0 no effect, 100 complete control
[20] = 125 g ai/ha, 0 to 100 scale (0 no effect, 100 complete control)

## CC(C)(C)CCOC(=O)c1c(Br)cccc1Oc1ncc(Cl)cn1 [Compound 96]
[1]; [19]
  Plant response rating, Ryegrass, Italian: 0
[1]; [20]
  Ryegrass, Italian plant response rating: 0
[2]
  Plant response rating, Barnyardgrass: 0
  Barnyardgrass plant response rating: 0
[3]; [19]
  Plant response rating, Foxtail, Giant: 0
[3]; [20]
  Foxtail, Giant plant response rating: 0
Kochia (Kochia scoparia) [4]; [19]
  Plant response rating, Kochia: 0
Kochia (Kochia scoparia) [4]; [20]
  Kochia plant response rating: 0
[5]; [19]
  Plant response rating, Pigweed: 0
[5]; [20]
  Pigweed plant response rating: 0
[6]; [19]
  Plant response rating, Ragweed: 0
[6]; [20]
  Ragweed plant response rating: 0
[7]; 31 g ai/ha
  Ryegrass, Italian plant response rating: 0
[7]; 125 g ai/ha
  Ryegrass, Italian plant response rating: 0
[8]; 31 g ai/ha
  Barnyardgrass plant response rating: 0
[8]; 125 g ai/ha
  Barnyardgrass plant response rating: 10
[9]; 31 g ai/ha
  Blackgrass plant response rating: 0
[9]; 125 g ai/ha
  Blackgrass plant response rating: 10
Corn (Zea mays); 31 g ai/ha
  Corn plant response rating: 0
Corn (Zea mays); 125 g ai/ha
  Corn plant response rating: 20
[10]; 31 g ai/ha
  Galium plant response rating: 0
[10]; 125 g ai/ha
  Galium plant response rating: 20
[11]; 31 g ai/ha
  Foxtail, Giant plant response rating: 0
[11]; 125 g ai/ha
  Foxtail, Giant plant response rating: 10
Kochia (Kochia scoparia) [12]; 31 g ai/ha
  Kochia plant response rating: 0
Kochia (Kochia scoparia) [12]; 125 g ai/ha
  Kochia plant response rating: 0
[13]; 31 g ai/ha
  Pigweed plant response rating: 0
[13]; 125 g ai/ha
  Pigweed plant response rating: 10
[14]; 31 g ai/ha
  Ragweed plant response rating: 0
[14]; 125 g ai/ha
  Ragweed plant response rating: 0
[15]; 31 g ai/ha
  Wheat plant response rating: 0
[15]; 125 g ai/ha
  Wheat plant response rating: 0
[16]
  Plant response rating, Barnyardgrass: 0
[17]
  Plant response rating, Ducksalad: 0
Rice (Oryza sativa)
  Plant response rating, Rice: 0
[18]
  Plant response rating, Sedge, Umbrella: 0

## O=C(OCC(Cl)CCl)c1c(Br)cccc1Oc1ncc(Cl)cn1 (centres unmarked) [Compound 97]
[1]; [19]
  Plant response rating, Ryegrass, Italian: 0
[1]; [20]
  Plant response rating, Ryegrass, Italian: 0
[2]
  Plant response rating, Barnyardgrass: 0
  Barnyardgrass plant response rating: 10
[3]; [19]
  Plant response rating, Foxtail, Giant: 40
[3]; [20]
  Plant response rating, Foxtail, Giant: 70
Kochia (Kochia scoparia) [4]; [19]
  Plant response rating, Kochia: 0
Kochia (Kochia scoparia) [4]; [20]
  Plant response rating, Kochia: 0
[5]; [19]
  Plant response rating, Pigweed: 0
[5]; [20]
  Plant response rating, Pigweed: 20
[6]; [19]
  Plant response rating, Ragweed: 0
[6]; [20]
  Plant response rating, Ragweed: 0
[7]; 31 g ai/ha
  Ryegrass, Italian plant response rating: 20
[7]; 125 g ai/ha
  Ryegrass, Italian plant response rating: 30
[8]; 31 g ai/ha
  Barnyardgrass plant response rating: 10
[8]; 125 g ai/ha
  Barnyardgrass plant response rating: 20
[9]; 31 g ai/ha
  Blackgrass plant response rating: 0
[9]; 125 g ai/ha
  Blackgrass plant response rating: 20
Corn (Zea mays); 31 g ai/ha
  Corn plant response rating: 10
Corn (Zea mays); 125 g ai/ha
  Corn plant response rating: 10
[10]; 31 g ai/ha
  Galium plant response rating: 100
[10]; 125 g ai/ha
  Galium plant response rating: 100
[11]; 31 g ai/ha
  Foxtail, Giant plant response rating: 10
[11]; 125 g ai/ha
  Foxtail, Giant plant response rating: 60
Kochia (Kochia scoparia) [12]; 125 g ai/ha
  Kochia plant response rating: 40
[13]; 31 g ai/ha
  Pigweed plant response rating: 20
[13]; 125 g ai/ha
  Pigweed plant response rating: 50
[14]; 31 g ai/ha
  Ragweed plant response rating: 10
[14]; 125 g ai/ha
  Ragweed plant response rating: 20
[15]; 31 g ai/ha
  Wheat plant response rating: 0
[15]; 125 g ai/ha
  Wheat plant response rating: 0
[16]
  Plant response rating, Barnyardgrass: 0
[17]
  Plant response rating, Ducksalad: 70
Rice (Oryza sativa)
  Plant response rating, Rice: 0
[18]
  Plant response rating, Sedge, Umbrella: 75

— US11053204B2, “Pyrimidinyloxy benzene derivatives as herbicides” (FMC Corporation, priority 2015, dated 2021)
